The source made the active and inactive calls.
What was measured:
[1] = biological target: T1, Sentrin-specific protease 6 (Homo sapiens, UniProt Q9GZR1); experiment: SAR Analysis of small molecule inhibitors of Sentrin-specific protease 6 (SENP6) using a Luminescent assay. [Related pubchem assays (depositor defined):AID2582, AID2599]; format: functional
T1 sequence (Q9GZR1 whole entry): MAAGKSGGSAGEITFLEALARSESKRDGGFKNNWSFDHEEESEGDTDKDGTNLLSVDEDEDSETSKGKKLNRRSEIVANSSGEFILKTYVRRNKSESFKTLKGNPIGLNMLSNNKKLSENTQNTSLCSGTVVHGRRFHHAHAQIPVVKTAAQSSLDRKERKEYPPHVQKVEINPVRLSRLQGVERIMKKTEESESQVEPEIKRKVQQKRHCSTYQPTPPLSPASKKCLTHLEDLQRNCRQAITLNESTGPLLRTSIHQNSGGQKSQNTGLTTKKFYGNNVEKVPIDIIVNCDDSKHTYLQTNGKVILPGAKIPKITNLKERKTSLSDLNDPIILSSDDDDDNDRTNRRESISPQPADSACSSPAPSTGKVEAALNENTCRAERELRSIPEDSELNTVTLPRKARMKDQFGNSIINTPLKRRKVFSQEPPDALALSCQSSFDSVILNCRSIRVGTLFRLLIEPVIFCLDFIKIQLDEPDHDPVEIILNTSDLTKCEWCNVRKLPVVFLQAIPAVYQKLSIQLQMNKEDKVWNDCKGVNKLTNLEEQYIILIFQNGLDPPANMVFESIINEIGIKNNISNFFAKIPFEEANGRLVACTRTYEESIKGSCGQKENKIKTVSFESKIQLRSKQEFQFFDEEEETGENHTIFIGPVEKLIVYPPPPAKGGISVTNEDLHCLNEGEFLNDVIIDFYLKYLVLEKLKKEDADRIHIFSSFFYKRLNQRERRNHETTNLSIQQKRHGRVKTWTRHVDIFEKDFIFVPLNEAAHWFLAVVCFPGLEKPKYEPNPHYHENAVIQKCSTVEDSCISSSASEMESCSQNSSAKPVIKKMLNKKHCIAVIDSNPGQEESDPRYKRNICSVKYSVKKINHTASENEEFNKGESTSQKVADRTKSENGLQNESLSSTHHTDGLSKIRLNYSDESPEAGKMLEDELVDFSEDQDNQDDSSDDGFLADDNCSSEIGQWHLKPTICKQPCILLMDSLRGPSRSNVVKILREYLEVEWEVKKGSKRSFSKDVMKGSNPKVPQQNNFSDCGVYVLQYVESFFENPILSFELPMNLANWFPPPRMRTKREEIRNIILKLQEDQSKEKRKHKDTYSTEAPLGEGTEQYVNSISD

[2] = Luminescence Cell-Based Dose Confirmation HTS to Identify Activators of 5'UTR Stem-Loop Driven Alpha-Synuclein mRNA Translation in H4 Neuroglioblastoma Cells. [Related pubchem assays: 1829 (Project Summary), 1814 (Primary HTS)]; format: functional

With `COc1cc(C(=O)c2nccc3cc(OC)c(OC)cc23)c([N+](=O)[O-])cc1OC` the IC50 [1] was 66.8 µM (active).

With `c1ccc2c(Nc3nnc(-c4ccncc4)s3)cccc2c1` the EC50 [2] was 196 nM (active).
